In patent US9144238B2, “Active compound combinations” (BAYER INTELLECTUAL PROPERTY GMBH, priority 2011, dated 2015):
Read-outs that look alike come from different tables or passages of the source.

How the values were obtained:
Venturia inaequalis = assay: Venturia test (apples)/preventive; type: in vivo; conditions: Venturia inaequalis, 240 h, read-out: Efficacy in % found; for pest or weed control at 50 ppm: Table 11, 50 ppm a.i.; for pest or weed control at 25 ppm: Table 10, 25 ppm a.i.
Experimental: (§1) To produce a suitable preparation of active compound, 1 part by weight of active compound is mixed with the stated amounts of solvent and emulsifier, and the concentrate is diluted with water to the desired concentration.
To test for preventive activity, young plants are sprayed with the preparation of active compound at the stated rate of application. After the spray coating has dried on, the plants are inoculated with an aqueous conidia suspension of the causal agent of apple scab (Venturia inaequalis) and then remain for 1 day in an incubation cabinet at approximately 20° C. and a relative atmospheric humidity of 100%.
The plants are then placed in a greenhouse at approximately 21° C. and a relative atmospheric humidity of approximately 90%.
(§2) The test is evaluated 10 days after the inoculation. 0% means an efficacy which corresponds to that of the untreated control, while an efficacy of 100% means that no disease is observed.

Phytophthora infestans = assay: whole plant or invertebrate; type: in vivo; conditions: Phytophthora infestans, 72 h, tomatoes; for pest or weed control at 0.01 ppm: 0.01 ppm a.i.; for pest or weed control at 0.005 ppm: 0.005 ppm a.i.; for pest or weed control at 0.0025 ppm: 0.0025 ppm a.i.; for pest or weed control at 10 ppm: 10 ppm a.i.
Botrytis cinerea = assay: Botrytis test (beans)/preventive; type: in vivo
Experimental: as §1
To test for preventive activity, young plants are sprayed with the preparation of active compound. After the spray coating has dried on, 2 small pieces of agar covered with growth of Botrytis cinerea are placed on each leaf. The inoculated plants are placed in a darkened chamber at 20° C. and a relative atmospheric humidity of 100%.
2 days after the inoculation, the size of the lesions on the leaves is evaluated. 0% means an efficacy which corresponds to that of the untreated control, while an efficacy of 100% means that no disease is observed.
as §2

Alternaria solani = assay: whole plant or invertebrate; type: in vivo; conditions: for Efficacy in % found: in vivo
Sphaerotheca fuliginea = assay: Sphaerotheca test (cucumbers)/preventive; type: in vivo
Experimental: as §1
To test for preventive activity, young plants are sprayed with the preparation of active compound at the stated rate of application. After the spray coating has dried on, the plants are inoculated with an aqueous spore suspension of Sphaerotheca fuliginea. The plants are then placed in a greenhouse at approximately 23° C. and a relative atmospheric humidity of approximately 70%.
The test is evaluated 7 days after the inoculation. 0% means an efficacy which corresponds to that of the untreated control, while an efficacy of 100% means that no disease is observed.
as §2

[1] = pH 2.3
Experimental: (§3) Measurement of log P values was performed according EEC directive 79/831 Annex V.A8 by HPLC (High Performance Liquid
(§4) Chromatography) on reversed phase columns with the following methods:
(§5) ^[a]Measurement was done at pH 2.3 with 0.1% phosphoric acid and acetonitrile as eluent.

[2] = read-out: Efficacy in % found, Table 1
[3] = read-out: Efficacy in % found, Table 2
[4] = Alternaria solani, 72 h, read-out: Efficacy in % found
[5] = read-out: Efficacy in % found, Table 3
[6] = read-out: Efficacy in % found, Table 4
[7] = read-out: Efficacy in % found, Table 5

Experimental for physchem: as §3, §4, §5

`C#CCOc1cccc(F)c1C1CC(c2csc(C3CCN(C(=O)Cn4nc(C(F)F)cc4C(F)F)CC3)n2)=NO1` (stereo not shown) [(I-5), 2-[3,5-bis(difluoromethyl)-1H-pyrazol-1-yl]-1-[4-(4-{5-[2-fluoro-6-(prop-2-yn-1-yloxy)phenyl]-4,5-dihydro-1,2-oxazol-3-yl}-1,3-thiazol-2-yl)piperidin-1-yl]ethanone] showed a pest or weed control at 50 ppm (Venturia inaequalis) of 0%, a pest or weed control at 100 ppm (Venturia inaequalis; Table 11, 100 ppm a.i.) of 0% and a chromatographic logP (physchem; pH 2.7) of 3.15. It also gave a chromatographic logP (physchem; pH 7.8) of 3.18, a pest or weed control at 0.01 ppm (Phytophthora infestans; [2]) of 62% and a pest or weed control at 0.005 ppm (Phytophthora infestans; [3]) of 43%. The “Efficacy in % found” value (Botrytis cinerea; Table 12, 25 ppm a.i.) was 10%, the “Efficacy in % found” value (Botrytis cinerea; Table 12, 100 ppm a.i.) was 38% and the pest or weed control at 50 ppm (Alternaria solani; [4]) was 15%. For the same molecule, the “Efficacy in % found” value (Alternaria solani) was 29%.
For `O=C(Nc1ccccc1-c1ccc(Cl)cc1)c1cccnc1Cl` [2.2, boscalid], the “Efficacy in % found” value (Sphaerotheca fuliginea; Table 13, 25 ppm a.i.) was 67% and the pest or weed control at 12.5 ppm (Venturia inaequalis; Table 10, 12.5 ppm a.i.) was 66%.
In the case of `C#CCOc1ccccc1C1CC(c2csc(C3CCN(C(=O)Cn4nc(C(F)F)cc4C(F)F)CC3)n2)=NO1` (stereo not shown) [(I-1), 2-[3,5-bis(difluoromethyl)-1H-pyrazol-1-yl]-1-[4-(4-{5-[2-(prop-2-yn-1-yloxy)phenyl]-4,5-dihydro-1,2-oxazol-3-yl}-1,3-thiazol-2-yl)piperidin-1-yl]ethanone], the “Efficacy in % found” value (Sphaerotheca fuliginea; Table 13, 50 ppm a.i.) was 0%, the pest or weed control at 25 ppm (Venturia inaequalis) was 0% and the pest or weed control at 100 ppm (Venturia inaequalis; Table 10, 100 ppm a.i.) was 8%. For the same molecule, the pest or weed control at 50 ppm (Venturia inaequalis) was 0%, the pest or weed control at 100 ppm (Venturia inaequalis; Table 11, 100 ppm a.i.) was 0% and the chromatographic logP (physchem; pH 2.7) was 3.24. It also gave a chromatographic logP (physchem; pH 7.8) of 3.34, a pest or weed control at 0.01 ppm (Phytophthora infestans; [2]) of 0% and a pest or weed control at 0.0025 ppm (Phytophthora infestans; [3]) of 52%. The pest or weed control at 0.01 ppm (Phytophthora infestans; [3]) was 42%, the pest or weed control at 0.01 ppm (Phytophthora infestans; [5]) was 29% and the pest or weed control at 0.01 ppm (Phytophthora infestans; [6]) was 15%. The pest or weed control at 0.0025 ppm (Phytophthora infestans; [7]) was 64%, the “Efficacy in % found” value (Botrytis cinerea; Table 12, 25 ppm a.i.) was 15% and the “Efficacy in % found” value (Botrytis cinerea; Table 12, 50 ppm a.i.) was 15%. It also gave a pest or weed control at 50 ppm (Alternaria solani; [4]) of 21% and a pest or weed control at 100 ppm (Alternaria solani; [4]) of 0%.
`O=C1c2ccccc2C(=O)N1SC(Cl)(Cl)Cl` [5.16, folpet] gave a pest or weed control at 10 ppm (Venturia inaequalis; Table 11, 10 ppm a.i.) of 43%, a pest or weed control at 5 ppm (Phytophthora infestans; read-out: Efficacy in % found, Table 2, 5 ppm a.i.) of 3% and a pest or weed control at 10 ppm (Phytophthora infestans; [3]) of 3%. For the same molecule, the “Efficacy in % found” value (Botrytis cinerea; Table 12, 10 ppm a.i.) was 31% and the pest or weed control at 5 ppm (Alternaria solani; [4]) was 21%.
In the case of `Cc1cc(C)nc(Nc2ccccc2)n1` [7.7, pyrimethanil], the pest or weed control at 10 ppm (Phytophthora infestans; [5]) was 10%, the “Efficacy in % found” value (Botrytis cinerea; Table 12, 10 ppm a.i.) was 15% and the pest or weed control at 20 ppm (Alternaria solani; [4]) was 4%.
For `C#CCOc1cccc(Cl)c1C1CC(c2csc(C3CCN(C(=O)Cn4nc(C(F)F)cc4C(F)F)CC3)n2)=NO1` (stereo not shown) [(I-6), 2-[3,5-bis(difluoromethyl)-1H-pyrazol-1-yl]-1-[4-(4-{5-[2-chloro-6-(prop-2-yn-1-yloxy)phenyl]-4,5-dihydro-1,2-oxazol-3-yl}-1,3-thiazol-2-yl)piperidin-1-yl]ethanone], the “Efficacy in % found” value (Sphaerotheca fuliginea; Table 13, 50 ppm a.i.) was 0%, the pest or weed control at 25 ppm (Venturia inaequalis) was 0% and the pest or weed control at 100 ppm (Venturia inaequalis; Table 10, 100 ppm a.i.) was 4%. For the same molecule, the pest or weed control at 50 ppm (Venturia inaequalis) was 13%, the pest or weed control at 100 ppm (Venturia inaequalis; Table 11, 100 ppm a.i.) was 38% and the chromatographic logP (physchem; pH 2.7) was 3.4. For the same molecule, the pest or weed control at 0.005 ppm (Phytophthora infestans; [6]) was 35%, the pest or weed control at 0.0025 ppm (Phytophthora infestans; [7]) was 73% and the chromatographic logP [1] was 3.51. For the same molecule, the pest or weed control at 25 ppm (Alternaria solani; [4]) was 30%, the pest or weed control at 50 ppm (Alternaria solani; [4]) was 35% and the pest or weed control at 100 ppm (Alternaria solani; [4]) was 41%. The “Efficacy in % found” value (Alternaria solani) was 29%.
For mancozeb [5.23], the “Efficacy in % found” value (Botrytis cinerea; Table 12, 5 ppm a.i.) was 0% and the “Efficacy in % found” value (Alternaria solani) was 0%.
